Source: US20080096922A1, “Novel Sulfonamide derivative” (Dainippon Sumitomo Pharma Co., Ltd., priority 2004, published 2008)
Where a name gives a salt, the structure may show the parent alone.

Tested on: LDL receptor
Test: Effects on an activity of a LDL receptor: uptake amount of DiI-LDL into HepG2 cell
Format: cell-based, human
Details: 1 μM, control group as 100%
Experimental: The 1,1′-dioctadecyl-3,3,3′,3′-tetramethylindocarbocyanine perchlorate (DiI)-labeled LDL (DiI-LDL) was prepared as follows. That is, a DiI (Invitrogen Corp., U.S.A) was mixed with a human LDL (Chemicon International, Inc., U.S.A) and the mixture was incubated at 37° C. for 8 hours. […] After centrifugation, the DiI-labeled LDL fraction was separated and dialyzed with a physiological saline to prepare the above desired solution.
The effects on a LDL receptor activity were determined as the uptake amount of DiI-LDL into HepG2 cell. The cultured human hepatic cell line HepG2 cell was purchased from the Dainippon Pharmaceuticals Co. Ltd. (Osaka, Japan). The HepG2 cells were seeded in a 96 well plate and were incubated in the Dulbecco's modified Eagle/F-12 (DMEM/F-12) medium containing 10% fetal bovine serum and antibiotics in a CO2 incubator at 37° C. for two to three days. After washing the cells, a DMEM/F-12 medium containing 5-10% lipoprotein-deficient serum, the test substrate and the antibiotics were added thereto and the cells were incubated at 37° C. for 19 hours. After adding DiI-LDL, the cells were incubated in a CO2 incubator at 37° C. for another 5 hours. The uptake amount of non-specific DiI-LDL was measured by adding 30 to 50 folds amount of the non-labeled LDL. After washing the cells with Dulbecco's phosphate buffer (Sigma Corp., U.S.A.), the Dulbecco's phosphate buffer was added to each well and then the uptake amount of DiI-LDL into the cell line were measured as the value of fluorescence. After measuring the fluorescence, the Dulbecco's phosphate buffer was removed and thereto was added 1N sodium hydroxide solution to dissolve the cells and the amount of protein was measured by using a part of the resulting solution. The effect on a LDL receptor activity by each compound was determined by calculating the ratio of the amount of fluorescence/the amount of protein, and by subtracting the non-specific uptake amount therefrom and then calculating the control group as 100%.

SMILES	Activity of (%) LDL receptor
COc1cccc([C@]2(CNS(N)(=O)=O)CC[C@@H](NCc3ccc(-c4ccccc4)cc3)CC2)c1.Cl [Example 42, N-{[cis-4-[(biphenyl-4-ylmethyl)amino]-1-(3-methoxyphenyl)cyclohexyl]methyl}sulfamide hydrochloride]	188%
COc1cccc([C@]2(CNS(C)(=O)=O)CC[C@@H](NCc3ccc(-c4ccccc4)cc3)CC2)c1 [Example 24, N-{[cis-4-[(biphenyl-4-ylmethyl)amino]-1-(3-methoxyphenyl)cyclohexyl]methyl}methanesulfonamide]	238%
COc1cccc([C@]2(CNS(N)(=O)=O)CC[C@@H](NC(C)c3ccccc3)CC2)c1 (stereo partly drawn) [Example 20, N-({cis-1-(3-methoxyphenyl)-4-[(1-phenylethyl)amino]-cyclohexyl}methyl)sulfamide]	128%
CNS(=O)(=O)NC[C@]1(c2cccc(OC)c2)CC[C@H](NCc2ccc(-c3ccccc3)cc2)CC1.Cl [Example 49, N-{[cis-4-[(biphenyl-4-ylmethyl)amino]-1-(3-methoxyphenyl)cyclohexyl]methyl}-N′-methylsulfamide hydrochloride]	208%

Same assay, conditions: 3 μM, control group as 100%

SMILES	Activity of (%) LDL receptor
COc1cccc([C@]2(CNS(N)(=O)=O)CC[C@H](NCc3ccc(-c4ccccc4)cc3)CC2)c1 [Example 43, N-{[trans-4-[(biphenyl-4-ylmethyl)amino]-1-(3-methoxyphenyl)cyclohexyl]methyl}sulfamide hydrochloride]	146%
COc1cccc([C@]2(CCNS(N)(=O)=O)CC[C@@H](NCc3ccc(-c4ccccc4)cc3)CC2)c1.Cl [Example 22, N-{2-[trans-4-[(biphenyl-4-ylmethyl)amino]-1-(3-methoxyphenyl)cyclohexyl]ethyl}sulfamide hydrochloride]	156%
COc1cccc([C@]2(CNS(=O)(=O)c3ccc(C)cc3)CC[C@@H](NCc3ccc(-c4ccccc4)cc3)CC2)c1 [Example 25, N-{[cis-4-[(biphenyl-4-ylmethyl)amino]-1-(3-methoxyphenyl)cyclohexyl]methyl}-4-methylbenzenesulfonamide]	153%
COc1cccc(C2(C(=O)NS(=O)(=O)Oc3c(C(C)C)cccc3C(C)C)CC3CCCC(C2)N3c2ccccc2OC)c1.Cl (centres unmarked) [Example 57, 2,6-diisopropylphenyl {[9-(2-methoxyphenyl)-3-(3-methoxyphenyl)-9-azabicyclo[3.3.1]nonan-3-yl]carbonyl}sulfamate hydrochloride]	124%

Same assay, conditions: 10 μM, control group as 100%

SMILES	Activity of (%) LDL receptor
COc1cccc([C@]2(CNS(N)(=O)=O)CC[C@@H](NC3CCN(Cc4ccccc4)CC3)CC2)c1 [Example 18-1, N-{[cis-4-[(1-benzylpiperidin-4-yl)amino]-1-(3-methoxyphenyl)cyclohexyl]methyl}sulfamide]	230%
COc1cccc([C@]2(CNS(C)(=O)=O)CC[C@@H](NC3CCN(Cc4ccc(S(C)(=O)=O)cc4)CC3)CC2)c1 [Example 15-2, N-[(cis-1-(3-methoxyphenyl)-4-{1-[4-(methylsulfonyl)-benzyl]piperidin-4-ylamino}cyclohexyl)methyl]methanesulfonamide]	223%
COc1cccc(C2(C(=O)NS(=O)(=O)Oc3c(C(C)C)cccc3C(C)C)CCC(Nc3ccccc3OC)CC2)c1 (centres unmarked) [Example 3-2, 2,6-diisopropylphenyl ({1-(3-methoxyphenyl)-4-[(2-methoxyphenyl)amino]cyclohexyl}carbonyl)sulfamate]	154%
COc1cccc(C2(C(=O)NS(=O)(=O)NC(C)c3ccccc3)CCN(c3ncccn3)CC2)c1 (centres unmarked) [Example 28-6, 4-(3-methoxyphenyl)-N-{[(1-phenylethyl)amino]sulfonyl}-1-pyrimidin-2-ylpiperidine-4-carboxamide]	127%
COc1cccc(C2(CNS(=O)(=O)c3ccc(C)cc3)CCN(C(c3ccccc3)c3ccccc3)CC2)c1 [Example 36, N-{[1-(diphenylmethyl)-4-(3-methoxyphenyl)piperidin-4-yl]methyl}-4-methylbenzenesulfonamide]	122%
COc1cccc(C2(CNS(C)(=O)=O)CCN(c3ccccc3OC)CC2)c1 [Example 27-1, N-{[1-(2-methoxyphenyl)-4-(3-methoxyphenyl)piperidin-4-yl]methyl}methanesulfonamide]	108%
COc1cccc(C2(C(=O)NS(=O)(=O)Oc3c(C(C)C)cccc3C(C)C)CCN(c3ncccn3)CC2)c1 [Example 1-17, 2,6-diisopropylphenyl {[4-(3-methoxyphenyl)-1-pyrimidin-2-ylpiperidin-4-yl]carbonyl}sulfamate]	120%
COc1cccc(C2(NS(=O)(=O)NC(=O)c3ccc(Cl)cc3)CCN(c3ncccn3)CC2)c1 [Example 34, 4-chloro-N-({[4-(3-methoxyphenyl)-1-pyrimidin-2-yl-piperidin-4-yl]amino}sulfonyl)benzamide]	139%
COc1cccc([C@]2(CNS(N)(=O)=O)CC[C@@H](NCc3ccc(-n4ccnc4)cc3)CC2)c1 [Example 18-2, N-{[cis-4-{[4-(1H-imidazol-1-yl)benzyl]amino}-1-(3-methoxyphenyl)cyclohexyl]methyl}sulfamide]	161%
COc1cccc([C@]2(CNS(C)(=O)=O)CC[C@@H](NC3CCN(Cc4ccc(NC(C)=O)cc4)CC3)CC2)c1 [Example 15-1, N-[4-({4-[(cis-4-(3-methoxyphenyl)-4-{[(methylsulfonyl)-amino]methyl}cyclohexyl)amino]piperidin-1-yl}methyl)phenyl]acetamide]	192%
COc1cccc([C@]2(CNS(N)(=O)=O)CC[C@H](NC3CCN(Cc4ccccc4)CC3)CC2)c1 [Example 55, N-{[trans-4-[(1-benzylpiperidin-4-yl)amino]-1-(3-methoxyphenyl)cyclohexyl]methyl}sulfamide dihydrochloride]	140%
COc1cccc([C@]2(CNS(C)(=O)=O)CC[C@@H](NC3CCNCC3)CC2)c1 [Example 10-3, N-{[cis-1-(3-methoxyphenyl)-4-(piperidin-4-ylamino)-cyclohexyl]methyl}methanesulfonamide dihydrochloride]	162%
COc1cccc([C@]2(CNS(C)(=O)=O)CC[C@H](N3CCN(C)CC3)CC2)c1 [Example 13-1, N-{[trans-1-(3-methoxyphenyl)-4-(4-methylpiperazin-1-yl)cyclohexyl]methyl}methanesulfonamide]	129%
COc1cccc(C2(C(=O)NS(N)(=O)=O)CCN(c3ncccn3)CC2)c1 [Example 28-1, N-(aminosulfonyl)-4-(3-methoxyphenyl)-1-pyrimidin-2-ylpiperidine-4-carboxamide]	186%
COc1cccc([C@]2(CNS(N)(=O)=O)CC[C@@H](NCc3ccc(S(N)(=O)=O)cc3)CC2)c1.Cl [Example 38, 4-({[cis-4-{[(aminosulfonyl)amino]methyl}-4-(3-methoxyphenyl)cyclohexyl]amino}methyl)benzenesulfonamide hydrochloride]	150%
COc1cccc(C2(C(=O)NS(=O)(=O)Oc3ccccc3C(C)(C)C)CCN(c3ccccc3OC)CC2)c1 [Example 1-8, 2-tert-butylphenyl {[1-(2-methoxyphenyl)-4-(3-methoxyphenyl)piperidin-4-yl]carbonyl}sulfamate]	134%
COc1cccc([C@]2(CNS(N)(=O)=O)CC[C@@H](NCc3ccc(-n4cncn4)cc3)CC2)c1 [Example 18-3, N-[(cis-1-(3-methoxyphenyl)-4-{[4-(1H-1,2,4-triazol-1-yl)-benzyl]amino}cyclohexyl)methyl]sulfamide]	154%
COc1cccc(C2(C(=O)NS(=O)(=O)Oc3c(C(C)C)cccc3C(C)C)CCN(c3nc4ccccc4s3)CC2)c1 [Example 1-19, 2,6-diisopropylphenyl {[1-(1,3-benzothiazol-2-yl)-4-(3-methoxyphenyl)piperidin-4-yl]carbonyl}sulfamate]	132%
COc1cccc(C2(C(=O)NP(=O)(Cc3ccccc3C)OC)CCN(c3ccccc3OC)CC2)c1 (centres unmarked) [Example 2-1, methyl N-{[1-(2-methoxyphenyl)-4-(3-methoxyphenyl)piperidin-4-yl]carbonyl}-P-(2-methylbenzyl)-phosphonamidate]	140%
COc1cccc([C@]2(CNS(=O)(=O)NC(=O)OC(C)(C)C)CC[C@@H](NCc3ccc(-c4ccccc4)cc3)CC2)c1 [Example 41, tert-butyl [({[cis-4-[(biphenyl-4-ylmethyl)amino]-1-(3-methoxyphenyl)cyclohexyl]methyl}amino)sulfonyl]carbamate]	173%
COc1cccc([C@]2(CNS(C)(=O)=O)CC[C@@H](NCc3ccc(S(C)(=O)=O)cc3)CC2)c1 [Example 12-2, N-[(cis-1-(3-methoxyphenyl)-4-{[4-(methylsulfonyl)benzyl]-amino}cyclohexyl)methyl]methanesulfonamide]	142%
